# Measurements as given in patent publication US20260234164A1, “BIPHENYL COMPOUND AS IMMUNOMODULATOR, PREPARATION METHOD THEREFOR AND USE THEREOF” (SHENZHEN CHIPSCREEN BIOSCIENCES CO., LTD., priority 2021, published 2026).
# Tested on: PD-1/PD-L1-mediated T cell activation inhibitory signal
# Experiment: CHO-PD-L1-CD3L / Jurkat-PD-1-NFAT co-culture luciferase reporter assay
# Type: cell-based
# Settings: Homo sapiens, co-culture 6 h, read-out: EC50 blocking PD-1/PD-L1-mediated T cell activation inhibitory signal
# Experimental: In order to detect the effect of the interaction between PD-1 and PD-L1 on T cell activation signals in the immune response, CHO-PD-L1-CD3L cells stably expressing human PD-L1 molecules and anti-CD3 single-chain antibody (ScFv) and Jurkat-PD-1-NFAT cells stably expressing human PD-1 molecule and NFAT reporter gene were constructed. When the two kinds of cells were co-incubated, the binding of anti-CD3ScFv on the surface of CHO cells and the membrane CD3 molecules of Jurkat cells would transmit an activation signal to Jurkat cells, but simultaneously, the binding of PD-L1 on the surface of CHO cells and PD-1 molecules on the surface of Jurkat cells would transmit an inhibitory signal inward to prevent expression of the luciferase reporter gene. When immune checkpoint antibodies or small molecule inhibitors were added, the binding of PD-1 and PD-L1 was blocked, the NFAT pathway activated by T cell activation signal mediated by cross-linking of CD3ScFv antibody and CD3 was no longer affected by the inhibitory signal, and the downstream luciferase reporter gene started to be expressed. A chemiluminescent signal proportional to reporter gene activation was detected by adding a catalytic substrate.
# CHO-PD-L1-CD3L cells expressing human PD-L1 molecule and anti-CD3 single-chain antibody (ScFv) and Jurkat-PD-1-NFAT cells stably expressing human PD-1 molecule and NFAT reporter gene were independently constructed and provided by Dr. Chen Bo (KeyMed Bioscience (Chengdu) Co., Ltd.). Puromycin (Cat #540411) and Hygromycin B (Cat #V900372) for stable culture of transfected cells were purchased from Sigma, PMA (Cat #P1585) was purchased from Sigma, anti-human PD-L1 antibody (Cat #GMP-A066) was purchased from Novoprotein Company. Luciferase substrate solution (Cat #E6485) and luciferase-specific cell lysis solution 5× (Cat #E1531) were purchased from Promega. Fluorescence detection instrument Tecan (Spark 10M) was purchased from Switzerland Tecan Company.
# (1) The day before the experiment, 100 μL of CHO-PD-L1-CD3L cells were inoculated in each well of a 96-well cell culture plate (about 4×10^4 cells/well) with a medium of DMEM/F12 containing 10% FBS, 8 μg/mL puromycin and 200 μg/mL hygromycin B, and cultured overnight at 37° C.
# (2) The test compounds were diluted with 0.1% PBST into different concentration gradients, added into 96-well plates, and pre-incubated for 30 min. Jurkat-PD-1-NFAT cell count was adjusted to 2×10^5 cells/mL with the RPMI 1640 complete medium containing 10% FBS, […]8 μg/mL puromycin and 200 μg/mL hygromycin B. 100 ng/mL PMA (the stock solution was prepared with DMSO to a concentration of 10 mg/mL) was added to amplify T cell activation signal. 100 μL of the above Jurkat-PD-1-NFAT cells was added to each well of the 96-well plate for co-culture.
# (3) When detecting the reaction, a control group was provided, including a solvent control without adding test compounds and a positive control with addition of anti-human PD-1 antibody as the experimental system. All detections were performed with duplicates.
# (4) After continuous incubation at 37° C. for 6 h, 40 μL of 5× cell lysate was directly added, and mixed well. The plate was placed at room temperature for 10 min to completely lyse the cells. 50 μL of the lysed cell solution was transferred to a fluorescence detection plate, and added with 30 μL of luciferase substrate solution. The chemiluminescence detection program on the fluorescence detector was immediately selected for detection.
# (5) The inhibition rate of T cell activation signal at the cellular level of the test compounds was calculated as follows: Inhibition rate of T cell activation signal (%)=(the original value of chemiluminescence in the detection well−solvent control)/(the highest original value of chemiluminescence detected in the compound detection well−solvent control)×100%. […]
row,SMILES,EC50 [nM]
1,"[2H]C([2H])([2H])OCC12CCC(CCN3CCc4c(nc(C(=O)Nc5cccc(-c6cccc(NC(=O)c7nc8c(n7C([2H])([2H])[2H])CCN(CCC79CCC(C(=O)O)(CC7)C9)C8)c6Cl)c5F)n4C([2H])([2H])[2H])C3)(CC1)C2 (single isomer, unassigned) [Compound I-7, 4-(2-(2-((2-chloro-2′-fluoro-3′-(5-(2-(4-((methoxy-d3)methyl)bicyclo[2.2.1]heptane-1-yl)ethyl)-1-(methyl-d3)-4,5,6,7-tetrahydro-1H-imidazo[4,5-c]pyridine-2-carboxamido)-[1,1′-biphenyl]-3-yl)carbamoyl)-1-(methyl-d3)-1,4,6,7-tetrahydro-5H-imidazo[4,5-c]pyridin-5-yl)ethyl)bicyclo[2.2.1]heptane-1-carboxylic acid]",19.6
2,"[2H]C([2H])([2H])OCC12CCC(CCN3CCc4c(nc(C(=O)Nc5cccc(-c6cccc(NC(=O)c7nc8c(n7C)CCN(CCC79CCC(C(=O)O)(CC7)C9)C8)c6Cl)c5C)n4C)C3)(CC1)C2 [Compound I-4, 4-(2-(2-((2-chloro-3′-(5-(2-(4-((methoxy-d3)methyl)bicyclo[2.2.1]heptane-1-yl)ethyl)-1-methyl-4,5,6,7-tetrahydro-1H-imidazo[4,5-c]pyridine-2-carboxamido)-2′-methyl-[1,1′-biphenyl]-3-yl)carbamoyl)-1-methyl-1,4,6,7-tetrahydro-5H-imidazo[4,5-c]pyridin-5-yl)ethyl)bicyclo[2.2.1]heptane-1-carboxylic acid]",9.72
3,"[2H]C([2H])([2H])OCC12CCC(CCN3CCc4c(nc(C(=O)Nc5cccc(-c6cccc(NC(=O)c7nc8c(n7C([2H])([2H])[2H])CCN(CCC79CCC(C(=O)O)(CC7)C9)C8)c6Cl)c5Cl)n4C([2H])([2H])[2H])C3)(CC1)C2 [Compound I-5, 4-(2-(2-((2,2′-dichloro-3′-(5-(2-(4-((methoxy-d3)methyl)bicyclo[2.2.1]heptane-1-yl)ethyl)-1-(methyl-d3)-4,5,6,7-tetrahydro-1H-imidazo[4,5-c]pyridine-2-carboxamido)-[1,1′-biphenyl]-3-yl)carbamoyl)-1-(methyl-d3)-1,4,6,7-tetrahydro-5H-imidazo[4,5-c]pyridin-5-yl)ethyl)bicyclo[2.2.1]heptane-1-carboxylic acid]",12.5
4,"[2H]C([2H])([2H])n1c(C(=O)Nc2cccc(-c3cccc(NC(=O)c4nc5c(n4C([2H])([2H])[2H])CCN(CCC46CCC(C(=O)O)(CC4)C6)C5)c3Cl)c2C)nc2c1CCN(CCC13CCC(COC)(CC1)C3)C2 [Compound I-10, 4-(2-(2-((2-chloro-3′-(5-(2-(4-(methoxymethyl)bicyclo[2.2.1]heptane-1-yl)ethyl)-1-(methyl-d3)-4,5,6,7-tetrahydro-1H-imidazo[4,5-c]pyridine-2-carboxamido)-2′-methyl-[1,1′-biphenyl]-3-yl)carbamoyl)-1-(methyl-d3)-1,4,6,7-tetrahydro-5H-imidazo[4,5-c]pyridin-5-yl)ethyl)bicyclo[2.2.1]heptane-1-carboxylic acid]",29.9

# More lines, in order of falling EC50, values ahead:
row,EC50 [nM],SMILES
1,45.1,"[2H]C([2H])([2H])n1c(C(=O)Nc2cccc(-c3cccc(NC(=O)c4nc5c(n4C([2H])([2H])[2H])CCN(CCC46CCC(C(=O)O)(CC4)C6)C5)c3Cl)c2F)nc2c1CCN(CCC13CCC(COC)(CC1)C3)C2 (single isomer, unassigned) [Compound I-8, 4-(2-(2-((2-chloro-2′-fluoro-3′-(5-(2-(4-(methoxymethyl)bicyclo[2.2.1]heptane-1-yl)ethyl)-1-(methyl-d3)-4,5,6,7-tetrahydro-1H-imidazo[4,5-c]pyridine-2-carboxamido)-[1,1′-biphenyl]-3-yl)carbamoyl)-1-(methyl-d3)-1,4,6,7-tetrahydro-5H-imidazo[4,5-c]pyridin-5-yl)ethyl)bicyclo[2.2.1]heptane-1-carboxylic acid]"
2,28.1,"[2H]C([2H])([2H])OCC12CCC(CCN3CCc4c(nc(C(=O)Nc5cccc(-c6cccc(NC(=O)c7nc8c(n7C([2H])([2H])[2H])CCN(CCC79CCC(C(=O)O)(CC7)C9)C8)c6Cl)c5C)n4C([2H])([2H])[2H])C3)(CC1)C2 [Compound I-9, 4-(2-(2-((2-chloro-3′-(5-(2-(4-((methoxy-d3)methyl)bicyclo[2.2.1]heptane-1-yl)ethyl)-1-(methyl-d3)-4,5,6,7-tetrahydro-1H-imidazo[4,5-c]pyridine-2-carboxamido)-2′-methyl-[1,1′-biphenyl]-3-yl)carbamoyl)-1-(methyl-d3)-1,4,6,7-tetrahydro-5H-imidazo[4,5-c]pyridin-5-yl)ethyl)bicyclo[2.2.1]heptane-1-carboxylic acid]"
3,19.8,"[2H]C([2H])([2H])OCC12CCC(CCN3CCc4c(nc(C(=O)Nc5cccc(-c6cccc(NC(=O)c7nc8c(n7C)CCN(CCC79CCC(C(=O)O)(CC7)C9)C8)c6Cl)c5F)n4C)C3)(CC1)C2 (single isomer, unassigned) [Compound I-2, 4-(2-(2-((2-chloro-2′-fluoro-3′-(5-(2-(4-((methoxy-d3)methyl)bicyclo[2.2.1]heptane-1-y 1)ethyl)-1-methyl-4,5,6,7-tetrahydro-1H-imidazo[4,5-c]pyridine-2-carboxamido)-[1,1′-biphenyl]-3-yl)carbamoyl)-1-methyl-1,4,6,7-tetrahydro-5H-imidazo[4,5-c]pyridin-5-yl)ethyl)bicyclo[2.2.1]heptane-1-carboxylic acid]"
4,15.1,"[2H]c1c([2H])c(NC(=O)c2nc3c(n2C)CCN(CCC24CCC(COC([2H])([2H])[2H])(CC2)C4)C3)c(F)c(-c2c([2H])c([2H])c([2H])c(NC(=O)c3nc4c(n3C)CCN(CCC35CCC(C(=O)O)(CC3)C5)C4)c2Cl)c1[2H] (single isomer, unassigned) [Compound I-14, 4-(2-(2-((2-chloro-2′-fluoro-3′-(5-(2-(4-((methoxy-d3)methyl)bicyclo[2.2.1]heptane-1-y 1)ethyl)-1-methyl-4,5,6,7-tetrahydro-1H-imidazo[4,5-c]pyridine-2-carboxamido)-[1,1′-biphenyl]-3-yl-4,4′,5,5′,6,6′-d6)carbamoyl)-1-methyl-1,4,6,7-tetrahydro-5H-imidazo[4,5-c]pyridin-5-yl)ethyl)bicyclo[2.2.1]heptane-1-carboxylic acid]"
5,12.5,"[2H]C([2H])([2H])n1c(C(=O)Nc2cccc(-c3cccc(NC(=O)c4nc5c(n4C([2H])([2H])[2H])CCN(CCC46CCC(C(=O)O)(CC4)C6)C5)c3Cl)c2Cl)nc2c1CCN(CCC13CCC(COC)(CC1)C3)C2 [Compound I-6, 4-(2-(2-((2,2′-dichloro-3′-(5-(2-(4-((methoxy)methyl)bicyclo[2.2.1]heptane-1-yl)ethyl)-1-(methyl-d3)-4,5,6,7-tetrahydro-1H-imidazo[4,5-c]pyridine-2-carboxamido)-[1,1′-biphenyl]-3-yl)carbamoyl)-1-(methyl-d3)-1,4,6,7-tetrahydro-5H-imidazo[4,5-c]pyridin-5-yl)ethyl)bicyclo[2.2.1]heptane-1-carboxylic acid]"
6,10.6,"[2H]C([2H])([2H])OCC12CCC(CCN3CCc4c(nc(C(=O)Nc5cccc(-c6cccc(NC(=O)c7nc8c(n7C)CCN(CCC79CCC(C(=O)O)(CC7)C9)C8)c6C)c5Cl)n4C)C3)(CC1)C2 [Compound I-3, 4-(2-(2-((2′-chloro-3′-(5-(2-(4-((methoxy-d3)methyl)bicyclo[2.2.1]heptane-1-yl)ethyl)-1-methyl-4,5,6,7-tetrahydro-1H-imidazo[4,5-c]pyridine-2-carboxamido)-2-methyl-[1,1′-biphenyl]-3-yl)carbamoyl)-1-methyl-1,4,6,7-tetrahydro-5H-imidazo[4,5-c]pyridin-5-yl)ethyl)bicyclo[2.2.1]heptane-1-carboxylic acid]"
